Laboratory results as given in patent US20150094321A1, “COMBINATION” (GlaxoSmithKline LLC, priority 2009, published 2015).

Key:
Assay in all cases: Cell line proliferation study
Assay type in all cases: cell-based, human
[1] = tested on: HPAFII; settings: pancreas; for IC50: Homo sapiens, HPAF-II, 72 hours, read-out: gIC50
Description: (§1) In a separate study, combination drug tests with Compounds A and B were conducted using a panel of cell lines from human colon cancers (n=26), lung cancers (n=15) and pancreatic cancers (n=6). Cell lines were obtained from commercial vendors (ATCC and DSMZ). Cell lines were grown in RPMI-1640 supplemented with 2 mM glutamine, 1 mM sodium pyruvate and 10% fetal bovine serum (except for Capan-1 and HuP-T4 which were grown with 20% fetal bovine serum) and maintained at 37° C. and 5% CO2 in a humid incubator. Assays were performed in 384 well microtiter plates with optimum seeding densities for each cell line.
(§2) The test compounds were prepared as 10 mM stocks in 100% DMSO. Further dilutions of the compounds were made in DMSO. Compound A was diluted horizontally in a separate 96 well microtiter plate in rows D-G using a 3-fold dilution series for 10 dilution points. Compound B was similarly diluted horizontally in a 96 well microtiter plate in rows B-E using a 3-fold dilution series for 10 dilution points.
(§3) The two compounds were combined using equal volumes from each drug plate into cell culture media. […] Both Compound A and Compound B were individually titrated in rows B and C (for Compound B) and rows F and G (for Compound A) of the merged drug plate.
(§4) A 1:10 dilution of the drugs was performed in cell culture media prior to addition to the cells.
(§5) The final concentration range for the test compounds was 250 to 0.013 nM for Compound A and 1000 to […] for Compound B. The positive control consisted of culture media with DMSO at 0.1% and cells. The negative control consisted of culture media with DMSO at 0.1%. The cell lines were incubated at 37° C., 5% CO2 in humid air for 72 hours. Cell proliferation was measured using the CellTiter Glo (Promega) reagent according to the manufacturer's protocol. The plates are treated with CellTiter Glo solution and are analyzed for RLU (relative light units) using a Molecular Devices SpectraMax M5 plate reader.
(§6) The percent intensity values were used in model 205 of XLfit (IDBS, Inc.) in Microsoft Excel to calculate gIC50 values using a 4 parameter logistical fit. The midpoint of the growth window (the gIC50) falls half way between the number of cells at the time of compound addition (T=0) and the growth of control cells treated with DMSO at 72 hrs. The number of cells at time zero (T0) is divided from the intensity value at the bottom of the response curve (Ymin) to generate a measure for cell death (Ymin/T0). A value below 1 for Ymin/T0 indicates stronger potency to induce cell death with the treatment when compared to higher values.
(§7) 1. Excess over Highest Single Agent (EOHSA)—This was calculated as described above (Borisy et al, 2003; FDA 21 CFR 300.50) 2. Bliss synergy—A second criterion often used to determine combination synergy is evaluating the excess inhibition over Bliss independence or “additivity” (Bliss and Mexico, 1939). The model assumes a combined response of the two compounds independently using the following:
(§8) Where Ea is the effect (or percent inhibition) of Compound A and Eb is the effect of Compound B. The resulting effect of the combination of the two compounds is compared to their predicted additivity by Bliss and a synergy score is generated for each dose along the response curve. 3. Combination Index (CI)—A third criterion traditionally used for the evaluation of synergy is Combination Index (CI) derived from the Chou and Talalay (1984). The following equation is a model used for compounds that behave with different mechanisms of action (mutually non-exclusive formula). This was calculated as described above.
(§9) For EOHSA and Bliss Synergy measures, a score is generated for each dose along the response curve. These scores reflect the percentage over the highest agent (EOHSA) or percentage greater than Bliss additivity, depending on which metric is being interpreted. […]

[2] = tested on: HT29; settings: HT29, colon; for IC50: Homo sapiens, HT-29, 72 hours, read-out: gIC50
Description: as §1, §2, §3, §4, §5, §6, §7, §8, §9

[3] = tested on: KM12; settings: KM12, colon; for IC50: Homo sapiens, 72 hours, read-out: gIC50
Description: as §1, §2, §3, §4, §5, §6, §7, §8, §9

[4] = tested on: LS1034; settings: LS1034, colon; for IC50: Homo sapiens, LS-1034, 72 hours, read-out: gIC50
Description: as §1, §2, §3, §4, §5, §6, §7, §8, §9

[5] = tested on: MiaPaCa; settings: for IC50: Homo sapiens, MIA PaCa-2, pancreas, 72 hours, read-out: gIC50; for Ymin/T0: pancreas
Description: as §1, §2, §3, §4, §5, §6, §7, §8, §9

[6] = tested on: NCIH1299; settings: NCIH1299, lung; for IC50: Homo sapiens, NCI-H1299, 72 hours, read-out: gIC50
Description: as §1, §2, §3, §4, §5, §6, §7, §8, §9

[7] = tested on: NCIH1563; settings: NCIH1563, lung; for IC50: Homo sapiens, NCI-H1563, 72 hours, read-out: gIC50
Description: as §1, §2, §3, §4, §5, §6, §7, §8, §9

[8] = tested on: NCIH1792; settings: NCIH1792, lung; for IC50: Homo sapiens, NCI-H1792, 72 hours, read-out: gIC50
Description: as §1, §2, §3, §4, §5, §6, §7, §8, §9

[9] = tested on: SW403; settings: SW403, colon; for IC50: Homo sapiens, SW-403, 72 hours, read-out: gIC50
Description: as §1, §2, §3, §4, §5, §6, §7, §8, §9

[10] = tested on: SW480; settings: SW480, colon; for IC50: Homo sapiens, 72 hours, read-out: gIC50
Description: as §1, §2, §3, §4, §5, §6, §7, §8, §9

[11] = tested on: SW620; settings: SW620, colon; for IC50: Homo sapiens, SW-620, 72 hours, read-out: gIC50
Description: as §1, §2, §3, §4, §5, §6, §7, §8, §9

[12] = tested on: SW837; settings: SW837, colon; for IC50: Homo sapiens, 72 hours, read-out: gIC50
Description: as §1, §2, §3, §4, §5, §6, §7, §8, §9

[13] = tested on: SW948; settings: SW948, colon; for IC50: Homo sapiens, 72 hours, read-out: gIC50
Description: as §1, §2, §3, §4, §5, §6, §7, §8, §9

[14] = tested on: YAPC; settings: pancreas; for IC50: Homo sapiens, 72 hours, read-out: gIC50
Description: as §1, §2, §3, §4, §5, §6, §7, §8, §9

SMILES | IC50 [1] | Ymin/T0 [1] | Ymin/T0 [2] | IC50 [2] | IC50 [3] | Ymin/T0 [3] | IC50 [4] | Ymin/T0 [4] | IC50 [5] | Ymin/T0 [5] | IC50 [6] | Ymin/T0 [6] | IC50 [7] | Ymin/T0 [7] | IC50 [8] | Ymin/T0 [8] | IC50 [9] | Ymin/T0 [9] | IC50 [10] | Ymin/T0 [10] | further results
CC(=O)Nc1cccc(-n2c(=O)n(C3CC3)c(=O)c3c(Nc4ccc(I)cc4F)n(C)c(=O)c(C)c32)c1 [Compound A, N-{3-[3-cyclopropyl-5-(2-fluoro-4-iodo-phenylamino)-6,8-dimethyl-2,4,7-trioxo-3,4,6,7-tetrahydro-2H-pyrido[4,3-d]pyrimidin-1-yl]phenyl}acetamide] | 15.9 nM | −0.8 | 11.99 | 3.6 nM | 28.7 nM | 19.1 | 37 nM | 2.87 | 23.5 nM | 25.0 | 24 nM | 45.9 | > 250 nM | 26.6 | 42 nM | 2.8 | 4.6 nM | 3.02 | 326 nM | 29.37 | IC50 [11]: 15.2 nM; Ymin/T0 [11]: 15.46; IC50 [12]: 153 nM; Ymin/T0 [12]: 25.58; IC50 [13]: 185 nM; Ymin/T0 [13]: 27.87; IC50 [14]: > 250 nM; Ymin/T0 [14]: 59.4
Cn1ncc(Cl)c1-c1cc(C(=O)N[C@H](CN)Cc2ccc(F)c(F)c2)oc1Cl [Compound B, N-{(1S)-2-amino-1-[(3,4-difluorophenyl)methyl]ethyl}-5-chloro-4-(4-chloro-1-methyl-1H-pyrazol-5-yl)-2-furancarboxamide] | > 1000 nM | 31.2 | 11.64 | 780 nM | 928 nM | 13.9 | > 1000 nM | −0.67 | > 1000 nM | 0.7 | > 1000 nM | 58.1 | 65 nM | 27.6 | > 1000 nM | 26.0 | 74.3 nM | 8.82 | > 1000 nM | 11.87 | IC50 [11]: > 1000 nM; Ymin/T0 [11]: 76.65; IC50 [12]: > 1000 nM; Ymin/T0 [12]: 63.88; IC50 [13]: 609 nM; Ymin/T0 [13]: 20.46; IC50 [14]: > 1000 nM; Ymin/T0 [14]: 55.2
